From ChEMBL document CHEMBL1201862, “PubChem BioAssay data set” (2004)
Active and inactive are the calls of the source.

Tests used:
[1] = biological target: DNA dC->dU-editing enzyme APOBEC-3A (Homo sapiens, UniProt P31941); test: Dose Response confirmation of small molecule APOBEC3A DNA Deaminase Inhibitors via a fluorescence-based single-stranded DNA deaminase assay. [Related pubchem assays (depositor defined):AID493011, AID493024]; assay type: functional
[2] = biological target: T1, Heat shock factor protein 1 (Mus musculus, UniProt P38532); test: decrease of HSF1-responsive luciferase luminescence – cell-based, NIH3T3, dose retest, confirmation (AID 2382); assay type: functional;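 also: NIH3T3 fibroblasts with HSF1-driven luciferase reporter stressed by proteasome inhibitor MG132; luminescence from HSF1-driven luciferase expression after 8 hours of MG132 stress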
T1 sequence (P38532 whole entry): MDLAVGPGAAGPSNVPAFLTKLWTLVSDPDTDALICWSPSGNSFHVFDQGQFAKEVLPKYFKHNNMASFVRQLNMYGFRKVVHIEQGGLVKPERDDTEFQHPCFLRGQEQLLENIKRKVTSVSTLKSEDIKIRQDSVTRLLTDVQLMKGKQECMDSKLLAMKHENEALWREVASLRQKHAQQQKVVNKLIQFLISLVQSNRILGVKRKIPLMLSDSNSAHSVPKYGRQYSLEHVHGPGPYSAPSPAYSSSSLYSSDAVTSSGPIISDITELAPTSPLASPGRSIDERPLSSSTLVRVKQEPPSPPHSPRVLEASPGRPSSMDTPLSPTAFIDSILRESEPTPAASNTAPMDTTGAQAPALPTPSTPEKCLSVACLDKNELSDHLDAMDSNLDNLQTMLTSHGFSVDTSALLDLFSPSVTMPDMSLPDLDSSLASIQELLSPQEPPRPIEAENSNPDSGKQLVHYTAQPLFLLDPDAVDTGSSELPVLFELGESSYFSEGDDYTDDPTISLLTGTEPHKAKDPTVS

[3] = biological target: DNA dC->dU-editing enzyme APOBEC-3G (Homo sapiens, UniProt Q9HC16); assay type: functional;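 also: Dose-response counterscreen measuring inhibition of APOBEC3G DNA deaminase activity, run while confirming APOBEC3A inhibitors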
cells [4] = assay type: functional, cell-based
cells [5] = assay type: functional, cell-based; remark: listed apart in the source
[6] = Counterscreen for inhibitors of Trypanosoma brucei methionyl tRNA synthetase (MetRS): Luminescence-based cell-based high throughput dose response assay to identify compounds that are cytotoxic to Jurkat human T lymphocyte cells.; assay type: functional
[7] = biological target: T2, Methionyl-tRNA synthetase, putative (Trypanosoma brucei brucei, UniProt Q38C91); assay type: functional, Trypanosoma brucei brucei strain 927/4 GUTat10.1
T2 sequence (Q38C91 whole entry): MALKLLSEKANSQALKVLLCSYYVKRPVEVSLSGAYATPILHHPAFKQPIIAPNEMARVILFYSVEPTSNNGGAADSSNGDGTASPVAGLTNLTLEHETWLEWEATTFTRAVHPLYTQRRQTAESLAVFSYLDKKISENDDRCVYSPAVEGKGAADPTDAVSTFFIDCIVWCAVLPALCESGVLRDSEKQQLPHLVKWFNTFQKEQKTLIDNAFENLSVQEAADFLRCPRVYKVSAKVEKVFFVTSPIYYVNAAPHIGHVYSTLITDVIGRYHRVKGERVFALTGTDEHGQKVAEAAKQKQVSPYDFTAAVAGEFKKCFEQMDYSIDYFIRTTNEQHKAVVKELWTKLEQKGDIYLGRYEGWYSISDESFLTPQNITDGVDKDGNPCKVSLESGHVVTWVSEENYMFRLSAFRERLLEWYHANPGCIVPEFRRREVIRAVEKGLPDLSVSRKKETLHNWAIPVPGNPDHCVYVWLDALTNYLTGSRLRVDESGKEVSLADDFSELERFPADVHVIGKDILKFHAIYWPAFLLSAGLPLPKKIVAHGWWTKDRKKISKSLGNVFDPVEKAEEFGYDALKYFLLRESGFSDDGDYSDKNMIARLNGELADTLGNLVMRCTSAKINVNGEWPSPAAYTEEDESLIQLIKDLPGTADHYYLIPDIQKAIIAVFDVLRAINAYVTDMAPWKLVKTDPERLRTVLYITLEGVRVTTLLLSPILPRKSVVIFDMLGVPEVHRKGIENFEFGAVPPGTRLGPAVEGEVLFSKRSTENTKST

[8] = biological target: T2, Methionyl-tRNA synthetase, putative; assay type: functional, Trypanosoma brucei brucei strain 927/4 GUTat10.1; remark: listed apart in the source
Cytochrome P450 1A2 = biological target: T3, Cytochrome P450 1A2 (Homo sapiens, UniProt P05177);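 also: PubChem cytochrome P450 panel assay, CYP1A2 panel member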
T3 sequence (P05177 whole entry): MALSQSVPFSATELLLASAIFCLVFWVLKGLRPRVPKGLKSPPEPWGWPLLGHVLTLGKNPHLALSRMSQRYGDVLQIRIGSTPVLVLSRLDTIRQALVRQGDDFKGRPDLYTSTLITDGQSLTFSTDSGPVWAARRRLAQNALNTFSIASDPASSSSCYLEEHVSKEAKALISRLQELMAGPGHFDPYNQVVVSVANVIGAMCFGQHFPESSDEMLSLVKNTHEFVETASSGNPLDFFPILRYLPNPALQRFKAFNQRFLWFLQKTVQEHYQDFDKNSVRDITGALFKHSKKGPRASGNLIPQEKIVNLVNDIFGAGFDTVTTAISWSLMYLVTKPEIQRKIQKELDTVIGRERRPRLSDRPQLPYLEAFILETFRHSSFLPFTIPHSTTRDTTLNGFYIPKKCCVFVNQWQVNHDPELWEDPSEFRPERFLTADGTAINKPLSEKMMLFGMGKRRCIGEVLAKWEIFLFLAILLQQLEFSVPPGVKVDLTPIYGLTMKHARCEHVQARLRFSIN

Cytochrome P450 3A4 = Cytochrome P450 3A4 (Homo sapiens, UniProt P08684);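 also: CYP3A4 tested as one member of a cytochrome P450 panel screen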
[9] = biological target: Arf-GAP with SH3 domain, ANK repeat and PH domain-containing protein 1 (Homo sapiens, UniProt Q9ULH1); assay type: functional;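 also: biochemical fluorescence polarization dose–response screen measuring inhibition of ASAP1; ASAP1 GAP domain stimulating GTP hydrolysis by truncated human ARF1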
[10] = biological target: T4, Long-chain-fatty-acid--AMP ligase FadD28 (Mycobacterium tuberculosis, UniProt P9WQ59); test: Fluorescence polarization aasay to screen for inhibitors that compete for the binding of FadD28 to a bisubstrate Measured in Biochemical System Using Plate Reader - 2147-01_Inhibitor_Dose_CherryPick_Activity.; assay type: functional, Mycobacterium tuberculosis H37Rv
T4 sequence (P9WQ59 whole entry): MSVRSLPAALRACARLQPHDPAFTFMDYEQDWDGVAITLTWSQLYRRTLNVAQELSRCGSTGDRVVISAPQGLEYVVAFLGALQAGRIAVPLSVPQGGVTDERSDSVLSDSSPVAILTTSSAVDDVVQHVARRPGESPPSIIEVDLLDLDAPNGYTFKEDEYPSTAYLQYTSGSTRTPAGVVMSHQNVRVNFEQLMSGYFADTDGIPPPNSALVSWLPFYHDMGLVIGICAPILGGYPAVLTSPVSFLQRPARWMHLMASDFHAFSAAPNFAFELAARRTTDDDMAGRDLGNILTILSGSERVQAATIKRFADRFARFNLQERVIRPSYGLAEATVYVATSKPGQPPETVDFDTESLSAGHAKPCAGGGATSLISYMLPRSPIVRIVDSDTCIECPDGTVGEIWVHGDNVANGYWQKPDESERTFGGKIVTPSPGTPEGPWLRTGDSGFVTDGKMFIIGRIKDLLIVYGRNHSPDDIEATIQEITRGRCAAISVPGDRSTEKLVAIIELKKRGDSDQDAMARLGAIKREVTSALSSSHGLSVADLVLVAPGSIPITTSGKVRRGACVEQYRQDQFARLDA

Chain of Arf-GAP with SH3 domain, ANK repeat and PH domain-containing protein 1 (Q9ULH1 whole entry, the tested form may be a part): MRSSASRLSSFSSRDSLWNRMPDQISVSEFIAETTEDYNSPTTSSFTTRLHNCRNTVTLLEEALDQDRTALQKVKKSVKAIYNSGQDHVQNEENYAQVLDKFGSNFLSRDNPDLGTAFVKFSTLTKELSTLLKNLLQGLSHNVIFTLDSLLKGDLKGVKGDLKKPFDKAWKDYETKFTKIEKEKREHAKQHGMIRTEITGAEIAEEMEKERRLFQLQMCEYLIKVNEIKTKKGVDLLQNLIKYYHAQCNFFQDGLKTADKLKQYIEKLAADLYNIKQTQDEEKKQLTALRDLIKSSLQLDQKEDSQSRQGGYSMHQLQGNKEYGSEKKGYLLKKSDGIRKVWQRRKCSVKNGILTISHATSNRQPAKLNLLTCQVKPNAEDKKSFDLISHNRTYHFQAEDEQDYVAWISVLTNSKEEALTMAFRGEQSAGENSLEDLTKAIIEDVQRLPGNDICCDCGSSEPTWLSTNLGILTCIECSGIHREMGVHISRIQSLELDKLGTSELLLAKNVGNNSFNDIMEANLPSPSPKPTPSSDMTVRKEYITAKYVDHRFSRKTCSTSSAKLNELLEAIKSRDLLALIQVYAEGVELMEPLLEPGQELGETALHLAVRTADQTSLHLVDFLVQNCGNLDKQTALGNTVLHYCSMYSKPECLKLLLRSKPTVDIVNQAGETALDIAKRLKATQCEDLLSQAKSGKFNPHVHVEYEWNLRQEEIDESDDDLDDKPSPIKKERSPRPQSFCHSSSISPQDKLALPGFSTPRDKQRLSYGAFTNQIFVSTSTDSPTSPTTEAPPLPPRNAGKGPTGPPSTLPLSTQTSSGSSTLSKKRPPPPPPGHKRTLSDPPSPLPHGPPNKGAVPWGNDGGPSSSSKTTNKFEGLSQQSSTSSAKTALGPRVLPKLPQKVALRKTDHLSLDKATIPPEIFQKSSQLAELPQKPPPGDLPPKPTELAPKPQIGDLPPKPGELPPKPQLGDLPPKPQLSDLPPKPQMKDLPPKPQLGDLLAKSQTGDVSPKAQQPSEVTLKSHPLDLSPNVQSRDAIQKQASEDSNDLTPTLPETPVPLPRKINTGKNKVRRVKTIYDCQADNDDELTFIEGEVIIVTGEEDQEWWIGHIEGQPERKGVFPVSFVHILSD
Chain of Cytochrome P450 3A4 (P08684 whole entry, the tested form may be a part): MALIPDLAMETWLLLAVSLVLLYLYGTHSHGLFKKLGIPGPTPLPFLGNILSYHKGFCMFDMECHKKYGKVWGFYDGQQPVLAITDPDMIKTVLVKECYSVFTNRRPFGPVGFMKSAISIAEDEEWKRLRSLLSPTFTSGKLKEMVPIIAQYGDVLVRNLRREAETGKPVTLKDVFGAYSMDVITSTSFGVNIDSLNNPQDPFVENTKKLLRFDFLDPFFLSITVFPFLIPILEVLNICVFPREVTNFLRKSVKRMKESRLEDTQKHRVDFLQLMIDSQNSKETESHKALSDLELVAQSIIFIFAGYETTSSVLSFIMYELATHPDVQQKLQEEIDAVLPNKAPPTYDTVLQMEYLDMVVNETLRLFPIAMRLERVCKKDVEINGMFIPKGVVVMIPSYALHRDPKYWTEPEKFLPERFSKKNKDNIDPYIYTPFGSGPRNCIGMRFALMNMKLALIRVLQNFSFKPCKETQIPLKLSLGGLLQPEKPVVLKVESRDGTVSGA
Chain of DNA dC->dU-editing enzyme APOBEC-3A (P31941 whole entry): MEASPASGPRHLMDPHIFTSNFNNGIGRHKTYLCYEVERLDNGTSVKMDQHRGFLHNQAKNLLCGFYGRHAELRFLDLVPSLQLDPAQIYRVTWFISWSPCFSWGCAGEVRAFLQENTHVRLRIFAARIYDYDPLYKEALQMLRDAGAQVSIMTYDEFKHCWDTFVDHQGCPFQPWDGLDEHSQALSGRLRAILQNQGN
Chain of DNA dC->dU-editing enzyme APOBEC-3G (Q9HC16 whole entry): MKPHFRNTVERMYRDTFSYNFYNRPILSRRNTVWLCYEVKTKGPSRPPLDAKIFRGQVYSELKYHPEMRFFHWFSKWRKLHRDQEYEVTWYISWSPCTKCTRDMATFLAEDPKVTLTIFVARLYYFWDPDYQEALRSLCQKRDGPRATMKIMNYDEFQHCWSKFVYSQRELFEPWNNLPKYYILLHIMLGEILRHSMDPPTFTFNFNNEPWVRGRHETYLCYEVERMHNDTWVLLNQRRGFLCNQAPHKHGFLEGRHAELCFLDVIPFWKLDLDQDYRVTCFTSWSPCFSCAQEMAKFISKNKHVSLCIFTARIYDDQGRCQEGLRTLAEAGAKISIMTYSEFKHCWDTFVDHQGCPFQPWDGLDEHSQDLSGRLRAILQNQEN

| SMILES | IC50 [6] | IC50 [7] | IC50 [8] | other results |
| --- | --- | --- | --- | --- |
| CCOc1ccc2c(c1)[N+](C)(C)C(C)(C)C=C2C |  |  |  | IC50 [1]: 2.96 µM (active); EC50 [2]: > 195 µM (not active); IC50 [3]: 3.2 µM (active) |
| COc1ccc(/C=N/CC2OCCc3ccccc32)cc1OC (centres undefined) |  |  |  | EC50 (cells [4]): > 29.9 µM (inactive); IC50 (cells [5]): > 29.9 µM (inactive) |
| Cn1nc(C(F)(F)F)c(-c2cccc(C(F)(F)F)c2)c1NC(=O)Nc1ccc(F)cc1 | 28.9 µM (inactive) | 10.4 µM (inactive) | 119 µM (inactive) |  |
| CCOc1ccc(C(=O)Nc2cccc(-c3cc4ccccc4oc3=O)c2)cc1[N+](=O)[O-] |  |  |  | AC50 (Cytochrome P450 1A2): 5.62 µM (inconclusive); AC50 (Cytochrome P450 3A4): 10 µM (inconclusive); IC50 [9]: 37.9 µM (inactive) |
| Clc1ccc(Cn2cc(/C=N/n3cnnc3)c3ccccc32)c(Cl)c1 |  |  |  | IC50 [9]: 12.9 µM (inactive) |
| Oc1c(C(c2ccc(F)cc2)N2CCc3ccccc3C2)sc2ncnn12 (centres undefined) |  |  |  | EC50 (cells [4]): > 29.9 µM (inactive); IC50 (cells [5]): > 29.9 µM (inactive) |
| O=C(Cc1ccc(Cl)c(Cl)c1)Nc1cccc(S(=O)(=O)N2CCOCC2)c1 | 34.8 µM (inactive) | 4.48 µM (active) | 7.78 µM (active) |  |
| O=C(COc1cccc(-n2cnnn2)c1)Nc1ccccc1 | 83.3 µM (inactive) | 38.2 µM (inactive) | 76 µM (inactive) |  |
| CCOC(=O)C1CCCN(C(=O)c2cc(Nc3ccc(OC)cc3)nc3ccccc23)C1 (centres undefined) |  |  |  | AC50 [10]: 30.5 µM (active) |
| OC(c1cc(Cl)cc(Cl)c1)c1nc(-c2cccc(F)c2)c[nH]1 (centres undefined) | 83.3 µM (inactive) | 7.94 µM (active) | 10.6 µM (inactive) |  |
